From US20240360146A1, “BRUTON'S TYROSINE KINASE AND MUTANT DEGRADER, COMPOSITION AND APPLICATION THEREOF” (HANGZHOU HEALZEN THERAPEUTICS CO., LTD., priority 2021, published 2024)

Each compound was assayed against T1, BTK (Homo sapiens, UniProt Q06187) (assay: BTK degradation activity test in Mino cells). Conditions: 16 h incubation, Western blot or Elisa.
T1 construct: endogenous in cells; host or cells: Mino cells
Type: cell-based
Outline: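 Mino cells treated with a concentration series of compound for 16 h, then lysed; total protein by BCA. BTK quantified by Western blot or ELISA, degradation rate calculated against blank control, and DC50 fitted from the degradation curve.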

T1 sequence (Q06187 whole entry): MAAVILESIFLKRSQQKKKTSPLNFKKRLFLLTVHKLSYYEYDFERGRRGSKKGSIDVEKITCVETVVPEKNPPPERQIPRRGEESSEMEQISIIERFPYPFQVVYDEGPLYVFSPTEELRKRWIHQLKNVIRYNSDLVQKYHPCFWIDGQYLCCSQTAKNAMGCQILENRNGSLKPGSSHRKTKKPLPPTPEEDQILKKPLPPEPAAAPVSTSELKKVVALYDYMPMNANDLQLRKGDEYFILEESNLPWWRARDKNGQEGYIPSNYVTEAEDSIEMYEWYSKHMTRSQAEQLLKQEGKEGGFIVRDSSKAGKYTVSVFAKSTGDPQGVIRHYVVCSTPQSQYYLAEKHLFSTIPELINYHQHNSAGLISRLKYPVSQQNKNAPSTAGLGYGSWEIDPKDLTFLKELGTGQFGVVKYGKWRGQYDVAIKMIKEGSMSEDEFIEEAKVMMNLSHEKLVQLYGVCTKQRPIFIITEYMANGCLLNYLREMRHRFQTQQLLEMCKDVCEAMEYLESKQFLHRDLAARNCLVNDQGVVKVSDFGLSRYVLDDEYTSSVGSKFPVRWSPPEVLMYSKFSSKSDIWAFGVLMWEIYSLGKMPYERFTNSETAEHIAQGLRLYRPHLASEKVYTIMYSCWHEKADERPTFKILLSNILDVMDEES

SMILES | DC50 [nM]
CN1CCN([C@@H]2CCCN(c3nnc(C(N)=O)c(Nc4ccc(N5CCN(C[C@H]6CCN(c7ccc8c(c7)C(=O)N(C7CCC(=O)NC7=O)C8=O)C6)CC5)c(Cl)c4)n3)C2)C1=O (stereo partly drawn) [Compound 160, 5-((3-chloro-4-(4-(((3R)-1-(2-(2,6-dioxopiperidin-3-yl)-1,3-dioxoisoindolin-5-yl)pyrrolidin-3-yl)methyl)piperazin-1-yl)phenyl)amino)-3-((R)-3-(3-methyl-2-oxoimidazolidin-1-yl)piperidin-1-yl)-1,2,4-triazin-6-carboxamide] | < 1
CN1CCN([C@@H]2CCCN(c3nnc(C(N)=O)c(Nc4ccc(N5CCN(CC6CCN(c7ccc8c(c7)C(=O)N(C7CCC(=O)NC7=O)C8=O)CC6)CC5)c(Cl)c4)n3)C2)C1=O (stereo partly drawn) [Compound 164, 5-((3-chloro-4-(4-((1-(2-(2,6-dioxopiperidin-3-yl)-1,3-dioxoisoindolin-5-yl)piperidin-4-yl)methyl)piperazin-1-yl)phenyl)amino)-3-((R)-3-(3-methyl-2-oxoimidazolidin-1-yl)piperidin-1-yl)-1,2,4-triazin-6-carboxamide] | < 1
CN1CCN([C@@H]2CCCN(c3nnc(C(N)=O)c(Nc4ccc(N5CCN(CC6CCN(c7ccc8c(c7)C(=O)N(C7CCC(=O)NC7=O)C8=O)CC6)CC5)c(F)c4F)n3)C2)C1=O (stereo partly drawn) [Compound 165, 5-((4-(4-((1-(2-(2,6-dioxopiperidin-3-yl)-1,3-dioxoisoindolin-5-yl)piperidin-4-yl)methyl)piperazin-1-yl)-2,3-difluorophenyl)amino)-3-((R)-3-(3-methyl-2-oxoimidazolidin-1-yl)piperidin-1-yl)-1,2,4-triazin-6-carboxamide] | < 1
CN1CCN([C@@H]2CCCN(c3nnc(C(N)=O)c(Nc4ccc(N5CCN(CC6CCN(c7cc8c(cc7F)C(=O)N(C7CCC(=O)NC7=O)C8=O)C6)CC5)c(F)c4)n3)C2)C1=O (stereo partly drawn) [Compound 169, 5-((4-(4-((1-(2-(2,6-dioxopiperidin-3-yl)-6-fluoro-1,3-dioxoisoindolin-5-yl)pyrrolidin-3-yl)methyl)piperazin-1-yl)-3-fluorophenyl)amino)-3-((R)-3-(3-methyl-2-oxoimidazolidin-1-yl)piperidin-1-yl)-1,2,4-triazin-6-carboxamide] | < 1
CN1CCN([C@@H]2CCCN(c3nnc(C(N)=O)c(Nc4ccc(N5CCN(CC6CCN(c7ccc(C(=O)NC8CCC(=O)NC8=O)cn7)CC6)CC5)c(F)c4)n3)C2)C1=O (stereo partly drawn) [Compound 175, 5-((4-(4-((1-(5-((2,6-dioxopiperidin-3-yl)carbamoyl)pyridin-2-yl)piperidin-4-yl)methyl)piperazin-1-yl)-3-fluorophenyl)amino)-3-((R)-3-(3-methyl-2-oxoimidazolidin-1-yl)piperidin-1-yl)-1,2,4-triazin-6-carboxamide] | < 1
CN1CCN([C@@H]2CCCN(c3nnc(C(N)=O)c(Nc4ccc(N5CCN(CC6CCN(c7ccc(C(=O)NC8CCC(=O)NC8=O)c8c7OCO8)C6)CC5)c(F)c4)n3)C2)C1=O (stereo partly drawn) [Compound 176, 5-((4-(4-((1-(7-((2,6-dioxopiperidin-3-yl)carbamoyl)benzo[d][1,3]dioxacyclopent-4-yl)pyrrolidin-3-yl)methyl)piperazin-1-yl)-3-fluorophenyl)amino)-3-((R)-3-(3-methyl-2-oxoimidazolidin-1-yl)piperidin-1-yl)-1,2,4-triazin-6-carboxamide] | < 1
CN1CCN([C@@H]2CCCN(c3nnc(C(N)=O)c(Nc4ccc(N5CCN(CC6CCN(c7ccc(C(=O)NC8CCC(=O)NC8=O)c8[nH]cnc78)C6)CC5)c(F)c4)n3)C2)C1=O (stereo partly drawn) [Compound 178, 4-(3-((4-(4-((6-carbamoyl-3-((R)-3-(3-methyl-2-oxoimidazolidin-1-yl)piperidin-1-yl)-1,2,4-triazin-5-yl)amino)-2-fluorophenyl)piperazin-1-yl)methyl)pyrrolidin-1-yl)-N-(2,6-dioxopiperidin-3-yl)-1Hbenzimidazol-7-carboxamide] | < 1

The next lines start with the values.

DC50 [nM] | SMILES
< 1 | CN1CCN([C@@H]2CCCN(c3nnc(C(N)=O)c(Nc4ccc(N5CCN(CC6CCN(c7ccc(N8CCC(=O)NC8=O)c8c7OCO8)CC6)CC5)c(F)c4)n3)C2)C1=O [Compound 190, (R)-5-((4-(4-((1-(7-(2,4-dioxotetrahydropyrimidin-1(2H)-yl)benzo[d][1,3]dioxacyclopent-4-yl)piperidin-4-yl)methyl)piperazin-1-yl)-3-fluorophenyl)amino)-3-(3-(3-methyl-2-oxoimidazolidin-1-yl)piperidin-1-yl)-1,2,4-triazin-6-carboxamide]
< 1 | CN1CCN([C@@H]2CCCN(c3nnc(C(N)=O)c(Nc4ccc(N5CCN(CC6CCN(c7ccc(N8CCC(=O)NC8=O)c8c7OCCO8)CC6)CC5)c(F)c4)n3)C2)C1=O [Compound 193, (R)-5-((4-(4-((1-(8-(2,4-dioxotetrahydropyrimidin-1(2H)-yl)-2,3-dihydrobenzo[b][1,4]dioxan-5-yl)piperidin-4-yl)methyl)piperazin-1-yl)-3-fluorophenyl)amino)-3-(3-(3-methyl-2-oxoimidazolidin-1-yl)piperidin-1-yl)-1,2,4-triazin-6-carboxamide]
< 1 | CN1CCN([C@@H]2CCCN(c3nnc(C(N)=O)c(Nc4ccc(N5CCN(CC6CCN(c7ccc(N8CCC(=O)NC8=O)c(C8CC8)c7)CC6)CC5)c(F)c4)n3)C2)C1=O [Compound 194, (R)-5-((4-(4-((1-(3-cyclopropyl-4-(2,4-dioxotetrahydropyrimidin-1(2H)-yl)phenyl)piperidin-4-yl)methyl)piperazin-1-yl)-3-fluorophenyl)amino)-3-(3-(3-methyl-2-oxoimidazolidin-1-yl)piperidin-1-yl)-1,2,4-triazin-6-carboxamide]
< 1 | CN1CCN([C@@H]2CCCN(c3nnc(C(N)=O)c(Nc4ccc(N5CCN(CC6CCN(c7ccc(N8CCC(=O)NC8=O)cc7S(C)(=O)=O)CC6)CC5)c(F)c4)n3)C2)C1=O [Compound 197, (R)-5-((4-(4-((1-(4-(2,4-dioxotetrahydropyrimidin-1(2H)-yl)-2-(methylsulfonyl)phenyl)piperidin-4-yl)methyl)piperazin-1-yl)-3-fluorophenyl)amino)-3-(3-(3-methyl-2-oxoimidazolidin-1-yl)piperidin-1-yl)-1,2,4-triazin-6-carboxamide]
< 1 | CN1CCN([C@@H]2CCCN(c3nnc(C(N)=O)c(Nc4ccc(N5CCN(CC6CCN(c7ccc(N8CCC(=O)NC8=O)cc7P(C)(C)=O)CC6)CC5)c(F)c4)n3)C2)C1=O [Compound 198, (R)-5-((4-(4-((1-(2-(dimethylphosphoryl)-4-(2,4-dioxotetrahydropyrimidin-1(2H)-yl)phenyl)piperidin-4-yl)methyl)piperazin-1-yl)-3-fluorophenyl)amino)-3-(3-(3-methyl-2-oxoimidazolidin-1-yl)piperidin-1-yl)-1,2,4-triazin-6-carboxamide]
< 1 | CN1CCN([C@@H]2CCCN(c3nnc(C(N)=O)c(Nc4ccc(N5CCN(CC6CCN(c7ccc(N8CCC(=O)NC8=O)c8cccnc78)CC6)CC5)c(F)c4)n3)C2)C1=O [Compound 199, (R)-5-((4-(4-((1-(5-(2,4-dioxotetrahydropyrimidin-1(2H)-yl)quinolin-8-yl)piperidin-4-yl)methyl)piperazin-1-yl)-3-fluorophenyl)amino)-3-(3-(3-methyl-2-oxoimidazolidin-1-yl)piperidin-1-yl)-1,2,4-triazin-6-carboxamide]
